Assay [1] concerns heart muscle cells of neonatal mice. As to the kind of experiment: Neonatal mice given beta blocker by retro-orbital injection (Examples 2 and 3): total cardiomyocytes, heart-body weight ratio. Conditions: retro-orbital injection twice a day, 1 μg/μl, 10 μl per g body weight; for heart-body-weight ratio: FIG. 17B, 18B; for total number of heart muscle cells (cardiomyocytes): P4 and P8 groups, FIG. 17A, 18A. Type of assay: in vivo, mouse. The procedure: (§1) Metoprolol was dissolved in PBS (1 μg/μl). The metoprolol was administered to neonatal mice using retro-orbital injection twice a day at the dose of 10 μl solution each 1 g body weight In the 4-day-old group (P4), the drug administration was performed at 9 am and 3 μm, respectively, from P1 and P3, then only injections at 9 am were performed at P4. The hearts were isolated at P4 in the afternoon. In the 8-day-old group (P8), the drug administration was performed at 9 am and 3 μm, respectively, from P1 and P7, then only injections at 9 am were performed at P8. The hearts were isolated at P8 in the afternoon.
as §1, with “Alprenolol” for “Metoprolol”, “alprenolol” for “metoprolol”, “pm,” for “μm,”

For assay [2], the system named is cardiomyocytes of newborn mice. As to the kind of experiment: Mouse pharmacological treatment of newborn mice: binucleated cardiomyocytes, cardiomyocyte endowment, cell cycle activity, heart weight. Conditions: newborn mice; for increase in the proportion of binucleated cardiomyocytes: forskolin 1 μg/g, 1 i.p. injection per day, FIG. 12B. Type of assay: in vivo. The procedure: […] An equal volume of phosphate buffered saline (PBS) was injected in the control groups.
Isolation of intact cardiomyocytes for quantification: We used a previously validated fixation digestion method to isolate intact cardiomyocytes from fresh or frozen myocardium for quantification (Mollova, M., et al. “Cardiomyocyte proliferation in human heart growth” Proceedings of the National Academy of Sciences January 2013, 110 (4) 1446-1451; DOI: 10.1073/pnas.1214608110). The myocardium was cut into 1 cubic millimeter (mm^3) sized tissue blocks followed by incubation with 3.7% formaldehyde at room temperature for 1.8 hours. After being washed with PBS 3 times to remove the formaldehyde, the fixed tissue blocks were digested in enzyme solution (Collagenase B, 3.6 mg/ml; Collagenase D, 4.8 mg/ml) at 37 degrees Celsius (° C.), with 10 revolutions per minute (rpm) overhead rotation. The digested cells were collected every 24 hours from the supernatant, and the undigested tissue was re-suspended with fresh enzyme solution until all of the tissue pieces were digested. All of the digested cells from the same heart were then combined and allowed to settle to the bottom of the tube. The cell pellet was collected for further study.
Counting of cardiomyocytes after fixation and digestion: All fractions from the digestion of a heart were combined in 2 milliliters (mL) PBS and cardiomyocytes were quantified using a hemocytometer.
Intact cardiomyocytes in suspension. To assess M-phase, intact cardiomyocytes were isolated by fixation-digestion. The solution containing the stained cells was then transferred to 8-well chambered cover glass (400 μl/well). After the cells were settled down to the bottom of the chambers, the number of mono/bi/multinucleated cardiomyocytes were counted with a fluorescence microscope, and the percentage of mono/bi/multinucleated cardiomyocytes was calculated. To quantify the proportion of H3P-positive cardiomyocytes, the concentration of stained cardiomyocytes in suspension (Ccardiomyocytes) was first measured using a hemocytometer. The cell suspension (400 μl) was then transferred to a well of a chamber slide, and the total number of H3P-positive cardiomyocytes (HH3P+) inside the well was counted with a TiE epifluorescence microscope. The proportion of the H3P-positive cardiomyocytes (PH3P+) was calculated using the following formula: […]
Heart sections: To determine S-phase, BrdU (40 μg/g body) was administered to P7 ICR mice and the hearts were resected at P8, fixed, and cryosectioned at 15 μm thickness. From each heart, four heart sections at a distance of 300 μm were selected and imaged by tile scanning with a Nikon A1R confocal microscope. The total number of BrdU-positive cardiomyocytes at the selected heart sections was counted. The total area of the selected heart sections was measured by Fiji software. The density of BrdU-positive cardiomyocytes (cells/mm^2) in the hearts was calculated using the following equation: […]
Intact cardiomyocytes in suspension. Cardiomyocytes were isolated from fresh or frozen (human or mouse) ventricle myocardium using the fixation-digestion method, followed by immunostaining as described above. The cells were then imaged and quantified with a Nikon A1R microscope for mono/bi/multi-nucleation.

Assay [3] has as its system cardiomyocytes from infants with ToF/PS. In words: ToF/PS myocardium tissue (organotypic) culture: binucleated BrdU-labeled cardiomyocytes. Type of assay: cell-based, human. To be noted: organotypic cultures of heart pieces from infants with ToF/PS, 10 μM, BrdU, FIG. 14E. The procedure: ToF/PS myocardium tissue culture: Discarded myocardium samples were collected during ToF/PS surgery, cut into ˜1 mm^3 tissue blocks, and cultured in IMDM media containing 10% FBS, recombinant neuregulin 1 (rNRG1, 100 ng/ml), and BrdU (30 μM) for 6 days. Samples were treated with forskolin (10 μM), propranolol (10 μM), dobutamine (10 μM), or a combination of propranolol (10 μM) and dobutamine (10 μM).
Cultured ToF/PS myocardium. Cardiomyocytes were isolated from cultured myocardium with the fixation-digestion method. After denaturing the DNA with 2N HCl and neutralization with 2 Normal (N) sodium hydroxide (NaOH), immunofluorescence antibody labeling was performed in solution. The proportion of binucleated and BrdU-positive was quantified with a Nikon A1R microscope.

For assay [4], the system named is human fetal cardiomyocytes. As to the kind of experiment: Cytokinesis failure in cultured human fetal cardiomyocytes (β-adrenergic receptor signaling pathway studies). Type of assay: cell-based. To be noted: cultured human fetal cardiomyocytes, 10 μM, FIG. 14C. The procedure:
Primary cardiomyocyte culture experiments: Neonatal (mouse or rat) cardiomyocytes or human fetal cardiomyocytes were plated in 4-well chamber slides pre-coated with fibronectin (10 μg/ml) at a density of 200,000 cells/well and cultured with DMEM/high glucose (for mouse and rat cardiomyocytes) or IMDM (for fetal human cardiomyocytes) containing 10% fetal bovine serum (FBS) and recombinant neuregulin 1 (rNRG1, 100 nanograms per milliliter (ng/ml)) overnight. All treatments and BrdU (30 micromolar (μM)) were added on the next day.
β-adrenergic receptor signaling pathway studies: Forskolin (10 μM), propranolol (10 μM), dobutamine (10 μM), or a combination of propranolol (10 μM) and dobutamine (10 μM) were added to the culture from day 1 to day 3. The cells were collected for examining gene expression or immunofluorescence microscopy at day 3.
Cardiomyocytes cultured on glass surfaces. […] The BrdU-positive nuclei, cell-cell boundaries (Pan-Cadherin antibody), and cardiomyocyte markers (α-actinin or troponin I antibody) were labeled by immunofluorescence. The stained cells were imaged under Nikon confocal microscope. The binucleated cardiomyocytes and all BrdU-positive cardiomyocytes were quantified using Fiji software.

The structures appear in SMILES notation.

With `COCCc1ccc(OCC(O)CNC(C)C)cc1` (centres unmarked) [Metoprolol, 1-[4-(2-methoxyethyl)phenoxy]-3-(propan-2-ylamino)propan-2-ol], in assay [1], the heart-body-weight ratio result is “did not alter” and the “total number of heart muscle cells (cardiomyocytes)” value was “did not alter”.
`C=CCc1ccccc1OCC(O)CNC(C)C` (centres unmarked) [alprenolol, 1-(propan-2-ylamino)-3-(2-prop-2-enylphenoxy)propan-2-ol]: the heart weight entry in assay [2] (2 i.p. injections per day, FIG. 16A, 16B) is “did not result in a change”. Besides, the “increase of cardiomyocyte endowment” value in assay [2] (at P8, 2 i.p. injections per day, counting fixation-digested hearts, FIG. 12D, 12H) worked out at 24%. Moreover, in assay [2] (treatment from P1 to P8, 2 i.p. injections per day (propranolol 10 μg/g; alprenolol 10 μg/g, 40 μg/g), FIG. 12C, 12G), the “decrease of the proportion/formation of binucleated cardiomyocytes” value came out at 13%. In assay [1], the heart-body-weight ratio entry is “without altering” and the “total number of heart muscle cells (cardiomyocytes)” value is “increases”.
For `CC(CCc1ccc(O)cc1)NCCc1ccc(O)c(O)c1` (centres unmarked) [dobutamine], the “proportion of binucleated cardiomyocytes” value in assay [3] is on record as “maximal increase”. For the same molecule, the “binucleated cardiomyocytes as % of the Fsk-induced increase” value in assay [4] amounted to 95.2%.
On to `C=C[C@@]1(C)CC(=O)[C@]2(O)[C@@]3(C)[C@@H](O)CCC(C)(C)[C@@H]3[C@H](O)[C@H](OC(C)=O)[C@@]2(C)O1` [forskolin], for which the results for the “increase in the proportion of binucleated cardiomyocytes” value in assay [2] (after 4 days) and in assay [2] (after 8 days) were 37% and 21%, respectively.
